# Calls of active or inactive are those of the source. The calls are words filed in the database; no cut-off is given here.
# Experiments:
# HT-29 [1] = settings: Homo sapiens, 100 to 200 uM
# Description: Inhibition of autophagic flux in human HT-29 cells assessed as increase in LC3-2 expression at 100 to 200 uM after 16 hrs by Western blot analysis
# HT-29 [2] = settings: Homo sapiens, 100 to 200 uM; remark: listed apart in the source
# Description: Inhibition of autophagic flux in human HT-29 cells assessed as reduction in p62 degradation at 100 to 200 uM after 16 hrs by Western blot analysis
# HT-29 [3] = experiment: Antiproliferative activity against human HT-29 cells assessed as reduction in cell viability at 75 uM in presence of oxaliplatin after 24 to 72 hrs by MTT assay; format: functional, cell-based
# Papain (Carica papaya) = target: T1, Papain (Carica papaya) (UniProt P00784); experiment: Inhibition of papaya papain at 50 uM using L-pyroglutamyl-L-phenylalanyl-L-leucine-p-nitroanilide as substrate measured after 30 mins
# T1 sequence (whole entry): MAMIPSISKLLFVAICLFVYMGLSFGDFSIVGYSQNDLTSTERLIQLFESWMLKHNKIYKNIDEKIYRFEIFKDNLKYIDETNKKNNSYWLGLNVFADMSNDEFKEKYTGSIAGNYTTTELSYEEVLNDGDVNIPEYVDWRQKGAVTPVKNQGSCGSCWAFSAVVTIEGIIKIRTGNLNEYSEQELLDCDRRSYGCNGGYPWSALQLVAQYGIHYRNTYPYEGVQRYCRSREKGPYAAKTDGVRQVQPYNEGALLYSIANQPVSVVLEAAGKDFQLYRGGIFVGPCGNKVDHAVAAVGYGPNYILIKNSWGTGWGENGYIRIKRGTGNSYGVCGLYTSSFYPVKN
# Cysteine protease ATG4B [4] = target: T2, Cysteine protease ATG4B (Homo sapiens, UniProt Q9Y4P1); experiment: Inhibition of ATG4B (unknown origin) using N-(His)6-LC3B(L123C) as substrate preincubated for 1 hr followed by substrate addition and measured after 30 mins MS-based analysis
# T2 sequence (Q9Y4P1 whole entry): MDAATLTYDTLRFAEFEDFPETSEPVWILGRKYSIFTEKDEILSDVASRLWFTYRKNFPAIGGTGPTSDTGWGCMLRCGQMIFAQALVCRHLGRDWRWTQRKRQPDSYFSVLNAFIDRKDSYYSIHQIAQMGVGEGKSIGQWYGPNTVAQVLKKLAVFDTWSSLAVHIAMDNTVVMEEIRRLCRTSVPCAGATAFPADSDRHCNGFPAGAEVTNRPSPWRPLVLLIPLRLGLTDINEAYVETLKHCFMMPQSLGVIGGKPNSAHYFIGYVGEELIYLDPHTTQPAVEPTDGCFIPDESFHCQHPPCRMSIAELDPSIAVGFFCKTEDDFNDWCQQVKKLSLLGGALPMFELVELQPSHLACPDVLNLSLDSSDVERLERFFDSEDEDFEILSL
# Cysteine protease ATG4B [5] = target: T2, Cysteine protease ATG4B; experiment: Inhibition of ATG4B (unknown origin) using N-(His)6-LC3B(L123C)Biotin as substrate preincubated for 30 mins and measured after 1 hr by AlphaScreen method
# Cysteine protease ATG4B [6] = target: T2, Cysteine protease ATG4B; experiment: Inhibition of recombinant ATG4B (unknown origin) expressed in Escherichia coli BL21(DE3) using LC3-PLA2 as substrate by fluoroscence based assay
SMILES,inhibition (Papain (Carica papaya)),IC50 (Cysteine protease ATG4B [4]) [µM],IC50 (Cysteine protease ATG4B [5]; read-out: IC50) [µM],other results
CCCCC(O)CNc1cc2c3c(cccc3c1)C(=O)N2 (stereo unspecified),inactive,–,–,inhibition (HT-29 [1]): Active; inhibition (HT-29 [2]): Active; Activity (HT-29 [3]): Active
CCCCC(O)CNc1cc2c3c(cccc3c1)NC2=O (stereo unspecified),–,215,235,–
O=c1oc2c(O)c(O)cc3c(=O)oc4c(O)c(O)cc1c4c23 [ELLAGIC ACID],–,–,–,IC50 (Cysteine protease ATG4B [6]): 3 µM
O=C1Nc2ccc(NCC(O)CCl)c3cccc1c23 (stereo unspecified),–,280,> 300,–
O=C(N[C@@H](Cc1ccccc1)C(=O)CCl)OCc1ccccc1,Active,–,–,–
C=CCCC(O)CNc1cc2c3c(cccc3c1)NC2=O (stereo unspecified),–,–,–,IC50 (Cysteine protease ATG4B [5]): Not Active
O=C1Nc2cccc3cc(NCC(O)CCl)cc1c23 (stereo unspecified),inactive,–,–,–
O=C1NC(=O)c2cc(NCC(O)CCl)cc3cccc1c23 (stereo unspecified),–,–,–,IC50 (Cysteine protease ATG4B [5]): Not Active
O=C(/C=C1/Nc2cc(Cl)c(Cl)cc2NC1=O)N/N=C/c1ccccc1O,–,–,315,–
Oc1ccc(C2=Nc3cccc4cccc(c34)N2)cc1,–,150,300,–
